In BindingDB's records for doi:10.1016/j.ejphar.2004.03.050 (Memorial Sloan-Kettering Cancer Center, 2004):
Where “and” joins values, the source holds several entries; their conditions need not be identical. Equal entries are not always repeated.

Experiments:
Mu-type opioid receptor = Mu-type opioid receptor (Bos taurus, UniProt P79350)
Opioid receptor delta 1 = Opioid receptor delta 1 (Bos taurus, UniProt F1N083)
Opioid receptor delta 1, sequence (F1N083 whole entry): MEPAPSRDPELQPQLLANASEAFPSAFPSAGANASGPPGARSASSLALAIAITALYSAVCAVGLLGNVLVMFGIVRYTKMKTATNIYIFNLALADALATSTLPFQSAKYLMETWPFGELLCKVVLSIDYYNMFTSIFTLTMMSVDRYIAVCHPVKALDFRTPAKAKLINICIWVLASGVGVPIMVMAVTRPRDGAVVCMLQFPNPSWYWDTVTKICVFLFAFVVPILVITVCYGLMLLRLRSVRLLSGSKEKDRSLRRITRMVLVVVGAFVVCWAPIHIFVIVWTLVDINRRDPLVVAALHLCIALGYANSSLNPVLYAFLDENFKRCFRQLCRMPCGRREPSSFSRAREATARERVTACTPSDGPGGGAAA

Mu-type opioid receptor, sequence (P79350 whole entry): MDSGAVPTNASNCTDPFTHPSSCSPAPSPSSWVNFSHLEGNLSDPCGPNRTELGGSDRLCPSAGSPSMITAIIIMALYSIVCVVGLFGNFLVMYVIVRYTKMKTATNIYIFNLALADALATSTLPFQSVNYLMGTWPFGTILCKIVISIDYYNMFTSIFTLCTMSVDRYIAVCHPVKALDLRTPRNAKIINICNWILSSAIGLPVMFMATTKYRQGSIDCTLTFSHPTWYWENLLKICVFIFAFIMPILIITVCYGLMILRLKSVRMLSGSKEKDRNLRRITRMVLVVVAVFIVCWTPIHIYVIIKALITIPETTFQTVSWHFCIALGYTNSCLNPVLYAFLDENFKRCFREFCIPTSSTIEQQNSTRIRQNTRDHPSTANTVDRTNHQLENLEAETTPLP

Row | Compound | Ki (Mu-type opioid receptor) | Ki (Opioid receptor delta 1)
1 | CC(=O)OC1CCC2C3Cc4ccc(O)c5c4C2(CCN3C)C1O5 (configuration not stated) [6-AcDHM] | 1.83 nM and 12.3 nM | 
2 | CN1CCC23c4c5ccc(O)c4OC2C(O)CCC3C1C5 (configuration not stated) [CAS_509-60-4] |  | 1000 nM
